Measurements as given in patent US9127015B2, “Tricyclopyrazole derivatives” (NERVIANO MEDICAL SCIENCES S.R.L., priority 2009, dated 2015).
pIC50: −log10 of the molar value. “And” between values parts separate entries of the source, which are not always exact repeats. Equal entries are not always repeated.

How the values were obtained:
Assay in all cases: Kinase inhibition assay, IC50 (Table A)
Assay type in all cases: biochemical
ABL = ABL (Homo sapiens, UniProt P00519); settings: Enzyme ABL
Method: (§1) The inhibiting activity of putative kinase inhibitors and the potency of selected compounds is determined through a method of assay based on the use of the Kinase-Glo® Luminescent Kinase Assay (commercially available from Promega corporation and described in Koresawa, M. and Okabe, T. (2004) High-throughput screening with quantitation of ATP consumption: A universal non-radioisotope, homogeneous assay for protein kinase. Assay Drug Dev. Technol. 2, 153-60).
(§2) The inhibitory activity of putative kinase inhibitors and the potency of selected compounds were also determined using a trans-phosphorylation assay.
(§3) Specific peptide or protein substrates are trans-phosphorylated by their specific ser-thr or tyr kinase in the presence of ATP traced with ^33P-γ-ATP, and in the presence of their own optimal buffer and cofactors. At the end of the phosphorylation reaction, more than 98% unlabeled ATP and radioactive ATP is captured by an excess of the ion exchange dowex resin; the resin then settles down to the bottom of the reaction plate by gravity. Supernatant is subsequently withdrawn and transferred into a counting plate, then evaluated by β-counting.
(§4) Reaction conditions are target (enzyme) dependent and thus undergo individual adaptations. Also the buffer conditions may vary depending on the kinase of interest. The assay can be used with virtually any kinase and substrate combination and is suitable for all type of protein kinases, such as ABL, ACK1, AKT1, ALK, AUR1, AUR2, BRK, BUB1, CDC7/DBF4, CDK21CYCA, CHK1, CK2, EEF2K, EGFR1, EphA2, EphB4, ERK2, FAK, FGFR1, FLT3, GSK3beta, Haspin, IGFR1, IKK2, IR, JAK1, JAK2, JAK3, KIT, LCK, LYN, MAPKAPK2, MELK, MET, MNK2, MPSI, MST4, NEK6, NIM1, P38alpha, PAK-4, PDGFR, PDK1, PERK, PIM1, PIM2, PKAalpha, PKCbeta, PLK1, RET, ROS1, SULU1, Syk, TLK2, TRKA, TYK, VEGFR2, VEGFR3, ZAP70.

ACK1 = ACK1 (Homo sapiens, UniProt Q07912); settings: Enzyme ACK1
Method: as §1, §2, §3, §4

KIT = KIT (Homo sapiens, UniProt P10721); settings: Enzyme KIT
Method: as §1, §2, §3, §4

BRK = BRK (Homo sapiens, UniProt Q13882); settings: Enzyme BRK
Method: as §1, §2, §3, §4

ABL, sequence (P00519 whole entry): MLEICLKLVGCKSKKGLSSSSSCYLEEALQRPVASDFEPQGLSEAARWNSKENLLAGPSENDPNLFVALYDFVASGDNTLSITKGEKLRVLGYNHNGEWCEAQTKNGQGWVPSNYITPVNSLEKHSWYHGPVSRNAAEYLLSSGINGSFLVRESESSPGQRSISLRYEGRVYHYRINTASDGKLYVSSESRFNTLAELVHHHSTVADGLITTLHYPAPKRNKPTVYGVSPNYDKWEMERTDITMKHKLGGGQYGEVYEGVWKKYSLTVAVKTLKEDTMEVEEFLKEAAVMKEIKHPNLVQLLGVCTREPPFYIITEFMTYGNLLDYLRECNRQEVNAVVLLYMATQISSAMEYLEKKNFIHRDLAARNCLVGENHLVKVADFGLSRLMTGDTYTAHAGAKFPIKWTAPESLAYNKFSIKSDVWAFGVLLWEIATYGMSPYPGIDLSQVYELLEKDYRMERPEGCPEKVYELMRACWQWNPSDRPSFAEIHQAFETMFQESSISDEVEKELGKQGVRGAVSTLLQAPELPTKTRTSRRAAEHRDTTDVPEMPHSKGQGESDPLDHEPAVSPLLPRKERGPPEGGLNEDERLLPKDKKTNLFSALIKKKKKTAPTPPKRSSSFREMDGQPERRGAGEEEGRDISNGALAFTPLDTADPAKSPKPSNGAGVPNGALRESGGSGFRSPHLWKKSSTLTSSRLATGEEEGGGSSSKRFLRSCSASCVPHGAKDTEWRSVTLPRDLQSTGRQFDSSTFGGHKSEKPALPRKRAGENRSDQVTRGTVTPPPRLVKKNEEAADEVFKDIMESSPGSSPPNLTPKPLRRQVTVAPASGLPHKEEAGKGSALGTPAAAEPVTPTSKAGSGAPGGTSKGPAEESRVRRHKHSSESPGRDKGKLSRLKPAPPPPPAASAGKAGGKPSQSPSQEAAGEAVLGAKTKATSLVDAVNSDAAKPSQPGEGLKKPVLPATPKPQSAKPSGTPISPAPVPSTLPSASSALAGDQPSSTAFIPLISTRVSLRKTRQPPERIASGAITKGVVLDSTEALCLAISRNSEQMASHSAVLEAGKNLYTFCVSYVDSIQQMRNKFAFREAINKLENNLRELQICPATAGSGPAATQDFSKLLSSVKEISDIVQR
KIT, sequence (P10721 26-976): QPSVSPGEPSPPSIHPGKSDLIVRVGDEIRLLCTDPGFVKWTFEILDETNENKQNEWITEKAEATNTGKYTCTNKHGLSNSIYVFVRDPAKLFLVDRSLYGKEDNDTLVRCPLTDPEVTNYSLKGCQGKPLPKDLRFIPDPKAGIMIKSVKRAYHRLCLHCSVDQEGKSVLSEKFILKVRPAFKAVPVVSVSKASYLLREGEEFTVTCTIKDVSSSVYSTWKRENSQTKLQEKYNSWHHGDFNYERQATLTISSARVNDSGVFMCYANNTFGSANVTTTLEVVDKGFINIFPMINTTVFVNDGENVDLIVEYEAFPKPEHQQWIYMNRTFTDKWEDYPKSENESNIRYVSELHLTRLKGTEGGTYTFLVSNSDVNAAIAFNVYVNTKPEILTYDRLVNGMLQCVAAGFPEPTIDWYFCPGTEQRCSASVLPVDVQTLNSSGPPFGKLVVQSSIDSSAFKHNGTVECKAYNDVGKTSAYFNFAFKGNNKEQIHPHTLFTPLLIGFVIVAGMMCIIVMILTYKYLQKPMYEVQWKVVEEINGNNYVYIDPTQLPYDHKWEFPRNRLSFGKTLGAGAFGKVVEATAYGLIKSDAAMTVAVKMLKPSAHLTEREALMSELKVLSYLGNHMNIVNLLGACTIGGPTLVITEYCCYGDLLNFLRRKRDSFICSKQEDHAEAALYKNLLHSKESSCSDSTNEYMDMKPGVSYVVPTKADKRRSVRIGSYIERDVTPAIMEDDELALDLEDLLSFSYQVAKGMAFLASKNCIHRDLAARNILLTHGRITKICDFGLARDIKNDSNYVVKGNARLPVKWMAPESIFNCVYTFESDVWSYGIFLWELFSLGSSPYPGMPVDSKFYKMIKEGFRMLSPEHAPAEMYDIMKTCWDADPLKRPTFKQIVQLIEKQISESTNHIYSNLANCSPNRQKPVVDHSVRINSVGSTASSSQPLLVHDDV
BRK, sequence (Q13882 whole entry): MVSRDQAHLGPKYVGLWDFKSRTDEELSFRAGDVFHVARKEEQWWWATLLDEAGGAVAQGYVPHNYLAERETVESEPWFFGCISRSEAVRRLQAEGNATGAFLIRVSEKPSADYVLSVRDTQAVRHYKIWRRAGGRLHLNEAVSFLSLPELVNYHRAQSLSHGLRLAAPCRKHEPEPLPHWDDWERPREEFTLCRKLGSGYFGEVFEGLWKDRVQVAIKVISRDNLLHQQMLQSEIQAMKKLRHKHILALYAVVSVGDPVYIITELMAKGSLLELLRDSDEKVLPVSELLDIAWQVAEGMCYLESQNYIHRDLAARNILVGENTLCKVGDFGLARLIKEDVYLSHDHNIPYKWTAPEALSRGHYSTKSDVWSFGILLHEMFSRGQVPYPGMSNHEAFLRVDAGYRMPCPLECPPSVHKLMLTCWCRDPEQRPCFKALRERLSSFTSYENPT
ACK1, sequence (Q07912 whole entry): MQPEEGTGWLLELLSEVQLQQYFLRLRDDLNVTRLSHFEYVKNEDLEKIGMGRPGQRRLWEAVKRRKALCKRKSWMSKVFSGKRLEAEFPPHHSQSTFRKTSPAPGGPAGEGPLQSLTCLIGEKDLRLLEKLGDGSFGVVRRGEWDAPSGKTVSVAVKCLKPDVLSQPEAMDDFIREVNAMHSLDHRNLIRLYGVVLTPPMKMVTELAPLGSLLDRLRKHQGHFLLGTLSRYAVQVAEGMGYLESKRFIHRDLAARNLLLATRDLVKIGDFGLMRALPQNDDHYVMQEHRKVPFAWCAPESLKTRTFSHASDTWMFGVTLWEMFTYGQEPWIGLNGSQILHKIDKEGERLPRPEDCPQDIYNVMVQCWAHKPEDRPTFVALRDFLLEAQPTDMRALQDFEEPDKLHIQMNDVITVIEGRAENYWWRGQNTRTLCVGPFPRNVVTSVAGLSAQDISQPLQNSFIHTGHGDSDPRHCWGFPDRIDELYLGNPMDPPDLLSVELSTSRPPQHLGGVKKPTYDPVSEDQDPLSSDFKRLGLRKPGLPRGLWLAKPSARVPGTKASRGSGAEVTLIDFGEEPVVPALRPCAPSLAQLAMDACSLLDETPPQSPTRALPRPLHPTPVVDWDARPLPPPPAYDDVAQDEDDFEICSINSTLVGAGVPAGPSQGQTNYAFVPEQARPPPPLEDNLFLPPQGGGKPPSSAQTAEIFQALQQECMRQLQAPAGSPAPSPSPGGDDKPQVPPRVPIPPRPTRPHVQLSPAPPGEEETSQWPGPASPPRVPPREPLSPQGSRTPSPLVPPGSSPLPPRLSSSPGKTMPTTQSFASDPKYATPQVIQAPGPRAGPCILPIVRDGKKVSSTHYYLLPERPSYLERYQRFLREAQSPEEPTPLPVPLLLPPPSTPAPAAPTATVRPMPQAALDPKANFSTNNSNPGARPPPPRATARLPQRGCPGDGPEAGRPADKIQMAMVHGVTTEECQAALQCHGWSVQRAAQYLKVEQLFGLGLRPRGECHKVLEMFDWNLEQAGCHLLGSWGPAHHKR

SMILES	pIC50 (ACK1)	further results
Cc1ccc(C(=O)Nc2n[nH]c3c2CCn2cc(C(=O)NC4CC4)cc2-3)c(C)c1 [Example A35-M1-B30]	5.18	
COCCNC(=O)c1cc2n(c1)CCCc1c(NC(=O)c3ccc(C)cc3C)n[nH]c1-2 [Example A35-M2-B33]	5.42	
O=C(NCc1cccs1)c1cc2n(c1)CCc1c(NC(=O)c3cccc(F)c3)n[nH]c1-2 [Example A8-M1-B16]		pIC50 (KIT): 5.57
O=C(NCc1ccccn1)c1cc2n(c1)CCc1c(NC(=O)c3ccccc3Cl)n[nH]c1-2 [Example A5-M1-B26]	5.52	
Cc1ccc(C(=O)Nc2n[nH]c3c2CCCn2cc(C(=O)NCC(C)C)cc2-3)c(C)c1 [Example A35-M2-B39]	5.85	
CC(C)CNC(=O)c1cc2n(c1)CCCc1c(NC(=O)C(C)C)n[nH]c1-2 [Example A27-M2-B39]	5.50	
CN1CCN(c2ccc(C(=O)Nc3n[nH]c4c3CCn3cc(C(=O)N(C)C)cc3-4)cc2)CC1 [Example A16-M1-B19]		pIC50 (KIT): 5.35
C=CCNC(=O)c1cc2n(c1)CCCc1c(NC(=O)c3ccc(C)cc3C)n[nH]c1-2 [Example A35-M2-B36]	5.40	
Cc1ccc(C(=O)Nc2n[nH]c3c2CCn2cc(C(=O)NCC(C)C)cc2-3)c(C)c1 [Example A35-M1-B39]	5.55	
O=C(NCc1cccs1)c1cc2n(c1)CCc1c(NC(=O)c3ccco3)n[nH]c1-2 [Example A9-M1-B16]		pIC50 (KIT): 6.07
O=C(NCCc1ccc(Cl)cc1)c1cc2n(c1)CCc1c(NC(=O)c3ccco3)n[nH]c1-2 [Example A9-M1-B13]		pIC50 (KIT): 5.23
O=C(NCC1CC1)c1cc2n(c1)CCCc1c(NC(=O)c3c(Cl)cccc3Cl)n[nH]c1-2 [Example A38-M2-B41]	5.55	
Cc1ccccc1C(=O)Nc1n[nH]c2c1CCn1cc(C(=O)NCC3CC3)cc1-2 [Example A21-M1-B41]	5.61	
O=C(NCc1ccncc1)c1cc2n(c1)CCc1c(NC(=O)c3ccccc3Cl)n[nH]c1-2 [Example A5-M1-B25]	5.72	
CCN(CC)C(=O)c1cc2n(c1)CCc1c(NC(=O)c3ccccc3C)n[nH]c1-2 [Example A21-M1-B17]	5.85	
O=C(NCc1cccs1)c1cc2n(c1)CCc1c(NC(=O)c3ccc4c(c3)OCO4)n[nH]c1-2 [Example A11-M1-B16]		pIC50 (KIT): 5.58
Cc1cc(C)c(C(=O)Nc2n[nH]c3c2CCn2cc(C(=O)N4CCCC4)cc2-3)c(C)c1 [Example A39-M1-B8]	6.12	
Cc1cc(C)c(C(=O)Nc2n[nH]c3c2CCn2cc(C(=O)N4CCC(N5CCCCC5)CC4)cc2-3)c(C)c1 [Example A39-M1-B34]	5.26	
Cc1ccccc1C(=O)Nc1n[nH]c2c1CCCn1cc(C(=O)NCC3CC3)cc1-2 [Example A21-M2-B41]	5.81	
Cc1ccc(C(=O)Nc2n[nH]c3c2CCn2cc(C(=O)NCC4CC4)cc2-3)c(C)c1 [Example A35-M1-B41]	5.54	
O=C(NCc1ccccn1)c1cc2n(c1)CCCc1c(NC(=O)c3ccccc3Cl)n[nH]c1-2 [Example A5-M2-B26]	5.32	
Cc1ccc(C(=O)Nc2n[nH]c3c2CCn2cc(C(=O)NC(C)C)cc2-3)c(C)c1 [Example A35-M1-B10]	5.50	

Second part, led by results:

pIC50 (ACK1)	SMILES	further results
6.20	Cc1ccccc1C(=O)Nc1n[nH]c2c1CCn1cc(C(=O)N3CCCC3)cc1-2 [Example A21-M1-B8]	pIC50 (ABL): 5.31
5.86	CCCN1CCN(C(=O)c2cc3n(c2)CCc2c(NC(=O)c4ccccc4Cl)n[nH]c2-3)CC1 [Example A5-M1-B32]	
5.23	Cc1ccc(C(=O)Nc2n[nH]c3c2CCn2cc(C(=O)N4CCOCC4)cc2-3)c(C)c1 [Example A35-M1-B7]	
5.84	O=C(Nc1n[nH]c2c1CCn1cc(C(=O)N3CCOCC3)cc1-2)c1ccccc1Cl [Example A5-M1-B7]	
5.71	CC(C)CNC(=O)c1cc2n(c1)CCc1c(NC(=O)c3ccccc3Cl)n[nH]c1-2 [Example A5-M1-B39]	
6.20 and 6.32	O=C(Nc1n[nH]c2c1CCn1cc(C(=O)N3CCCC3)cc1-2)c1ccccc1Cl [Example A5-M1-B8]	pIC50 (ABL): 5.73 and 5.65; pIC50 (KIT): 5.22
5.33	O=C(NC1CC1)c1cc2n(c1)CCc1c(NC(=O)c3ccccc3Cl)n[nH]c1-2 [Example A5-M1-B30]	
6.36 and 6.62	O=C(NCC1CC1)c1cc2n(c1)CCCc1c(NC(=O)c3ccccc3Cl)n[nH]c1-2 [Example A5-M2-B41]	
5.39	C=CCNC(=O)c1cc2n(c1)CCc1c(NC(=O)c3ccccc3Cl)n[nH]c1-2 [Example A5-M1-B36]	
6.26	CC(C)CNC(=O)c1cc2n(c1)CCCc1c(NC(=O)c3ccccc3Cl)n[nH]c1-2 [Example A5-M2-B39]	
6.05	Cc1ccccc1C(=O)Nc1n[nH]c2c1CCn1cc(C(=O)N3CCC(N4CCCCC4)CC3)cc1-2 [Example A21-M1-B34]	pIC50 (BRK): 5.30; pIC50 (ABL): 5.27
6.00	CCN1CCN(C(=O)c2cc3n(c2)CCc2c(NC(=O)c4ccccc4Cl)n[nH]c2-3)CC1 [Example A5-M1-B37]	pIC50 (BRK): 5.24; pIC50 (ABL): 5.29
5.62	CCC(C)NC(=O)c1cc2n(c1)CCc1c(NC(=O)c3ccccc3Cl)n[nH]c1-2 (stereo not shown) [Example A5-M1-B27]	
6.13	C=CCNC(=O)c1cc2n(c1)CCCc1c(NC(=O)c3ccccc3Cl)n[nH]c1-2 [Example A5-M2-B36]	
5.69	Cc1ccccc1C(=O)Nc1n[nH]c2c1CCn1cc(C(=O)N3CCSCC3)cc1-2 [Example A21-M1-B38]	pIC50 (BRK): 5.20
5.67	CCN(CC)C(=O)c1cc2n(c1)CCc1c(NC(=O)c3ccccc3Cl)n[nH]c1-2 [Example A5-M1-B17]	
6.36	O=C(Nc1n[nH]c2c1CCn1cc(C(=O)N3CCCCC3)cc1-2)c1ccccc1Cl [Example A5-M1-B42]	pIC50 (BRK): 5.44; pIC50 (ABL): 5.75; pIC50 (KIT): 5.18
5.51	CCCN1CCN(C(=O)c2cc3n(c2)CCc2c(NC(=O)c4ccccc4F)n[nH]c2-3)CC1 [Example A20-M1-B32]	
5.45	O=C(NCCN1CCCCC1)c1cc2n(c1)CCCc1c(NC(=O)c3ccccc3Cl)n[nH]c1-2 [Example A5-M2-B31]	
5.66	Cc1ccc(C(=O)Nc2n[nH]c3c2CCn2cc(C(=O)N4CCCCC4)cc2-3)c(C)c1 [Example A35-M1-B42]	
5.76	CC(C)N1CCN(C(=O)c2cc3n(c2)CCc2c(NC(=O)c4ccccc4Cl)n[nH]c2-3)CC1 [Example A5-M1-B40]	
5.36	O=C(NC1CCCC1)c1cc2n(c1)CCc1c(NC(=O)c3ccccc3Cl)n[nH]c1-2 [Example A5-M1-B28]	
5.49	CC(C)NC(=O)c1cc2n(c1)CCc1c(NC(=O)c3ccccc3Cl)n[nH]c1-2 [Example A5-M1-B10]	
5.92	CCCN1CCN(C(=O)c2cc3n(c2)CCc2c(NC(=O)c4ccc(C)cc4C)n[nH]c2-3)CC1 [Example A35-M1-B32]	
5.67	O=C(Nc1n[nH]c2c1CCn1cc(C(=O)N3CCSCC3)cc1-2)c1ccccc1Cl [Example A5-M1-B38]	
5.61	COCCNC(=O)c1cc2n(c1)CCCc1c(NC(=O)c3ccccc3Cl)n[nH]c1-2 [Example A5-M2-B33]	
5.50	O=C(NCCN1CCCCC1)c1cc2n(c1)CCc1c(NC(=O)c3ccccc3Cl)n[nH]c1-2 [Example A5-M1-B31]	
5.72	COc1ccccc1C(=O)Nc1n[nH]c2c1CCn1cc(C(=O)N3CCCC3)cc1-2 [Example A6-M1-B8]	
5.98	O=C(Nc1n[nH]c2c1CCn1cc(C(=O)N3CCCC3)cc1-2)c1ccccc1F [Example A20-M1-B8]	pIC50 (ABL): 5.61; pIC50 (KIT): 5.69
